Legend:
Eimeria acervulina = test: Protozoan (sporozoite) direct killing ability, Eimeria acervulina; format: cell-based; details: for Eimeria acervulina protozoal death rate (%): compared to PBS-treated negative control group; for Minimum concentration for killing 100% protozoa (ppm), Eimeria acervulina: tested 1 to 500 ppm
Description: (§1) In the present example, protozoan (sporozoite) direct killing ability evaluation was conducted against 3 representative Eimeria kinds known to be infected in most farms (E. tenella, E. acervulina, E. maxima).
(§2) A certain amount of oocysts of each protozoan was put in a tube containing glass beads and pulverized, and then to remove the crushed oocyst cell wall and other debris, internal sporocysts were purified using the percoll density gradient, and washed with PBS solution. A reagent comprising sodium taurocholic acid (Sigma aldrich, USA) and trypsin (Gibco, USA), respectively, was treated to sporocysts of Eimeria tenella, Eimeria acervulina and Eimeria maxima for excystation and they were incubated, and then they were washed with PBS solution once and protozoa were obtained.
(§3) After reacting the mangosteen pericarp extract, epicatechin, alpha-mangostin, xanthone and anticoccidial agents, salinomycin and diclazuril (hereinafter, material) with 3 kinds of Eimeria protozoa at various concentrations of 1 to 500 ppm, respectively, only alive protozoa (sporozoites) were counted through microscopic observation. Then, the death rate (%) of the protozoa when each material was treated compared to the PBS-treated negative control group was calculated and shown in Table 8 to Table 10 and Table 12, respectively, and the minimum concentration which directly killed the protozoa by 100% was shown in Table 11 below.

Eimeria tenella = test: Protozoan (sporozoite) direct killing ability, Eimeria tenella; format: cell-based; details: for Eimeria tenella protozoal death rate (%): compared to PBS-treated negative control group
Description: as §1, §2, §3

Eimeria maxima = test: Protozoan (sporozoite) direct killing ability, Eimeria maxima; format: cell-based; details: for Eimeria maxima protozoal death rate (%): compared to PBS-treated negative control group
Description: as §1, §2, §3

[1] = system: MDBK(Madin-Darby Bovine Kidney Epithelial Cells); test: Cytotoxicity, MTS analysis, MDBK; details: 3.1~500 ppm/well, 14 hours + 2 hours MTS, vs 5% DMSO treatment group
Description: (§4) In the present example, using MTS analysis method (3-(4,5-[…])-5-(3-carboxymethoxyphenyl)-2-(4-sulfophenyl)-2H-tetrazolium, promega, USA), an effect on survival of cells of the mangosteen extract was investigated.
(§5) The cell lines utilized in cytotoxicity evaluation were (1) MDBK(Madin-Darby Bovine Kidney Epithelial Cells) and (2) RAW264.7(Mouse macrophage cell), and all of them were purchased from ATCC and used.
(§6) Each cell was aliquoted at a concentration of 1×10^5 cell/well in a 96-well cell culture plate, and cultured at 37° C. for 24 hours, and then each material (mangosteen extract, xanthone, alpha-mangostin and epicatechin) was treated by concentration (3.1˜500 ppm/well) and cultured at a temperature of 37° C.

[2] = system: RAW264.7(Mouse macrophage cell); test: Cytotoxicity, MTS analysis, RAW264.7; details: 3.1~500 ppm/well, 14 hours + 2 hours MTS, vs 5% DMSO treatment group
Description: as §4, §5, §6

[3] = Broiler growth effect (daily weight gain) due to intake in feed; format: in vivo, Ross broilers; details: for End body weight: non-infected broilers
Description: An efficacy evaluation test was performed in an animal experiment facility in Gyeongsangnam-do, South Korea. One-day-old female Ross broilers were individually weighed and randomly divided into groups to use in an experiment. Matters and conditions for experimental design were described in Table 16.
A breeding farm was managed according to the Korean poultry breeding management guidelines. Cages and the breeding farm were cleaned and disinfected before starting the test. The temperature of […] and the humidity of 40 to 50% of the breeding farm were maintained, and it was continuously monitored.
For the feed, Korea Feed A1-choi product was used, and each material (salinomycin (Cheil Bio Cheilsalino-60 product), xanthone (Sigma Aldrich X600 product), and the mangosteen extract prepared in Example 1-2 above) was added to the feed, respectively, at a concentration described in Table 17 below to be self-mixed. Antibiotics and supplements were not used in general feed and mixed feed, and no anticoccidial agent other than each material was added. Broilers were fed ad libitum throughout the experiment period. After putting 20 1-day-age broilers in cages randomly placed for each of the control group or test group and breeding, general feed was fed for 7 days, and then the mixed feed prepared above was ingested by dividing by control group or test group. The feed formulation administered to the control group (negative control group or positive control group) and test group was described in Table 17 below.
The body weight before feeding and on the 7th day after feeding the feed of Table 16 above into individuals was measured, and the difference was divided by the number of days to calculate the daily weight gain (ADG, g/d), and the result was shown in Table 18. For comparison between 6 treatment groups, Duncan post-test multiple comparison method was used, and statistical significance was verified using a SAS statistical program, and the result was shown in Table 18.

[4] = formulated feed 125 ppm for 7 days
[5] = formulated feed 250 ppm for 7 days

Structure (SMILES): O=c1c2ccccc2oc2ccccc12 [Xanthone, xanthone]
- Eimeria acervulina protozoal death rate (%) (Eimeria acervulina; 1 ppm): 0%
- Eimeria acervulina protozoal death rate (%) (Eimeria acervulina; 5 ppm): 0%
- Eimeria acervulina protozoal death rate (%) (Eimeria acervulina; 10 ppm): 0%
- Eimeria acervulina protozoal death rate (%) (Eimeria acervulina; 50 ppm): 0%
- Eimeria acervulina protozoal death rate (%) (Eimeria acervulina; 100 ppm): 0%
- Eimeria acervulina protozoal death rate (%) (Eimeria acervulina; 125 ppm): 0%
- Eimeria acervulina protozoal death rate (%) (Eimeria acervulina; 250 ppm): 11%
- Eimeria acervulina protozoal death rate (%) (Eimeria acervulina; 500 ppm): 25%
- Minimum concentration for killing 100% protozoa (ppm), Eimeria acervulina (Eimeria acervulina): >500 ppm
- Minimum concentration for killing 100% protozoa (ppm), Eimeria acervulina (Eimeria acervulina; listed as xanthone): > 500 ppm
- Eimeria tenella protozoal death rate (%) (Eimeria tenella; 1 ppm): 0%
- Eimeria tenella protozoal death rate (%) (Eimeria tenella; 5 ppm): 0%
- Eimeria tenella protozoal death rate (%) (Eimeria tenella; 10 ppm): 0%
- Eimeria tenella protozoal death rate (%) (Eimeria tenella; 50 ppm): 0%
- Eimeria tenella protozoal death rate (%) (Eimeria tenella; 100 ppm): 0%
- Eimeria tenella protozoal death rate (%) (Eimeria tenella; 125 ppm): 10%
- Eimeria tenella protozoal death rate (%) (Eimeria tenella; 250 ppm): 0%
- Eimeria tenella protozoal death rate (%) (Eimeria tenella; 500 ppm): 15%
- Minimum concentrataion of killing protozoa 100% (ppm) (Eimeria tenella; Eimeria tenella, Table 15, method similar to Example 2-1): ≥500 ppm
- Minimum concentration for killing 100% protozoa (ppm), Eimeria tenella (Eimeria tenella; tested 1 to 500 ppm): >500 ppm
- Eimeria maxima protozoal death rate (%) (Eimeria maxima; 1 ppm): 0%
- Eimeria maxima protozoal death rate (%) (Eimeria maxima; 5 ppm): 0%
- Eimeria maxima protozoal death rate (%) (Eimeria maxima; 10 ppm): 0%
- Eimeria maxima protozoal death rate (%) (Eimeria maxima; 50 ppm): 0%
- Eimeria maxima protozoal death rate (%) (Eimeria maxima; 100 ppm): 0%
- Eimeria maxima protozoal death rate (%) (Eimeria maxima; 125 ppm): 0%
- Eimeria maxima protozoal death rate (%) (Eimeria maxima; 250 ppm): 5%
- Eimeria maxima protozoal death rate (%) (Eimeria maxima; 500 ppm): 12%
- Minimum concentration for killing 100% protozoa (ppm), Eimeria maxima (Eimeria maxima; tested 1 to 500 ppm): >500 ppm
- Minimum concentrataion of cytotoxicity at which cells of 50% or more survive (ppm) [1]: ≥62.5 ppm
- Minimum concentrataion of cytotoxicity at which cells of 50% or more survive (ppm) [2]: ≥62.5 ppm
- Daily weight gain compared to the negative control group, in words ([3]; Table 18, Duncan p < 0.05, mangosteen extract also vs positive control and xanthone groups): rather reduced
- Daily weight gain (ADG) [3, 4]: 43.86 g/day
- End-initial body weight (7 days, g) [3, 4]: 307 g
- End body weight [3, 4]: 509 g
- Daily weight gain (ADG) [3, 5]: 40.57 g/day
- End-initial body weight (7 days, g) [3, 5]: 284 g
- End body weight [3, 5]: 485 g
